Results reported in ChEMBL document CHEMBL3046389, “Synthesis and biological evaluation of novel hydroquinone dimethyl ethers as potential anticancer and antimicrobial agents” (2013).
≈ marks a conversion by molar mass, not a printed value.

What was measured:
Type in all cases: functional
UACC-62 = test: Growth inhibition of Homo sapiens (human) UACC62 cells at 10 uM after 48 hr by SRB assay; settings: UACC-62, 48 h, read-out: GI
MCF7 [1] = test: Anticancer activity against Homo sapiens (human) MCF7 cells after 48 hr by SRB assay; settings: MCF7, 48 h
TK-10 = test: Growth inhibition of Homo sapiens (human) TK10 cells at 10 uM after 48 hr by SRB assay; settings: TK-10, 48 h, read-out: GI
IGROV-1 = test: Growth inhibition of Homo sapiens (human) IGROV1 cells at 10 uM after 48 hr by SRB assay; settings: IGROV-1, 48 h, read-out: GI
MCF7 [2] = test: Growth inhibition of Homo sapiens (human) MCF7 cells at 10 uM after 48 hr by SRB assay; settings: MCF7, 48 h, read-out: GI
NCI-H522 = test: Anticancer activity against Homo sapiens (human) NCI-H522 cells after 48 hr by SRB assay; settings: NCI-H522, 48 h
HCT-116 = test: Growth inhibition of Homo sapiens (human) HCT116 cells at 10 uM after 48 hr by SRB assay; settings: HCT-116, 48 h, read-out: GI
SN12C = test: Anticancer activity against Homo sapiens (human) SN12C cells after 48 hr by SRB assay
786-0 = test: Anticancer activity against Homo sapiens (human) 786-0 cells after 48 hr by SRB assay; settings: 786-0, 48 h
HCC 2998 = test: Anticancer activity against Homo sapiens (human) HCC2998 cells after 48 hr by SRB assay; settings: HCC 2998, 48 h
SK-MEL-5 = test: Anticancer activity against Homo sapiens (human) SK-MEL-5 cells after 48 hr by SRB assay; settings: SK-MEL-5, 48 h
Escherichia coli = test: Antimicrobial activity against Escherichia coli ATCC 11775 after 48 hr by two-fold serial broth dilution method; settings: ATCC 11775, 48 h
SNB-19 = test: Anticancer activity against Homo sapiens (human) SNB19 cells after 48 hr by SRB assay; settings: SNB-19, 48 h
OVCAR-3 = test: Growth inhibition of Homo sapiens (human) OVCAR3 cells at 10 uM after 48 hr by SRB assay; settings: OVCAR-3, 48 h, read-out: GI
LOX IMVI = test: Growth inhibition of Homo sapiens (human) LOXIMVI cells at 10 uM after 48 hr by SRB assay; settings: read-out: GI
OVCAR-4 = test: Anticancer activity against Homo sapiens (human) OVCAR4 cells after 48 hr by SRB assay; settings: OVCAR-4, 48 h
SF-295 = test: Growth inhibition of Homo sapiens (human) SF295 cells at 10 uM after 48 hr by SRB assay; settings: SF-295, 48 h, read-out: GI
K562 = test: Growth inhibition of Homo sapiens (human) K562 cells at 10 uM after 48 hr by SRB assay; settings: K562, 48 h, read-out: GI
UO-31 = test: Anticancer activity against Homo sapiens (human) UO31 cells after 48 hr by SRB assay; settings: UO-31, 48 h
NCI-H23 = test: Anticancer activity against Homo sapiens (human) NCI-H23 cells after 48 hr by SRB assay; settings: NCI-H23, 48 h
NCI-H460 = test: Anticancer activity against Homo sapiens (human) NCI-H460 cells after 48 hr by SRB assay; settings: NCI-H460, 48 h
HT-29 = test: Anticancer activity against Homo sapiens (human) HT-29 cells after 48 hr by SRB assay; settings: HT-29, 48 h
ACHN = test: Growth inhibition of Homo sapiens (human) ACHN cells at 10 uM after 48 hr by SRB assay; settings: read-out: GI
A549 = test: Anticancer activity against Homo sapiens (human) A549/ATCC cells after 48 hr by SRB assay; settings: A549, 48 h
Hs-578T = test: Anticancer activity against Homo sapiens (human) Hs 578T cells after 48 hr by SRB assay
PC-3 [3] = test: Growth inhibition of Homo sapiens (human) PC3 cells at 10 uM after 48 hr by SRB assay; settings: PC-3, 48 h, read-out: GI
HL-60(TB) = test: Anticancer activity against Homo sapiens (human) HL-60(TB) cells after 48 hr by SRB assay; settings: HL-60, 48 h
M14 = test: Growth inhibition of Homo sapiens (human) M14 cells at 10 uM after 48 hr by SRB assay; settings: M14, 48 h, read-out: GI
MDA-MB-468 [4] = test: Anticancer activity against Homo sapiens (human) MDA-MB-468 cells after 48 hr by SRB assay; settings: MDA-MB-468, 48 h
MDA-MB-435 [5] = test: Anticancer activity against Homo sapiens (human) MDA-MB-435 cells after 48 hr by SRB assay; settings: MDA-MB-435, 48 h
MDA-MB-435 [6] = test: Growth inhibition of Homo sapiens (human) MDA-MB-435 cells at 10 uM after 48 hr by SRB assay; settings: MDA-MB-435, 48 h, read-out: GI
PC-3 [7] = test: Anticancer activity against Homo sapiens (human) PC3 cells after 48 hr by SRB assay; settings: PC-3, 48 h
MDA-MB-468 [8] = test: Growth inhibition of Homo sapiens (human) MDA-MB-468 cells at 10 uM after 48 hr by SRB assay; settings: MDA-MB-468, 48 h, read-out: GI
[9] = read-out: LC50 (the source's name)

With `COc1ccc(OC)c(/C=C/C(=O)N/N=C/c2ccccc2)c1` the inhibition of growth at 10 µM (UACC-62) was 39%, the GI50 (MCF7 [1]) was 3.79 µM and the TGI (MCF7 [1]) was > 100 µM. The CC50 (MCF7 [1]; [9]) was > 100 µM, the inhibition of growth at 10 µM (TK-10) was 43.3% and the inhibition of growth at 10 µM (IGROV-1) was 61.5%. It also gave an inhibition of growth at 10 µM (MCF7 [2]) of 82.7%, a GI50 (NCI-H522) of 1.57 µM and a TGI (NCI-H522) of 41.7 µM. For the same molecule, the CC50 (NCI-H522; [9]) was > 100 µM, the inhibition of growth at 10 µM (HCT-116) was 85.8% and the GI50 (SN12C) was 4.17 µM. For the same molecule, the LC50 (SN12C) was > 100 µM, the TGI (SN12C) was 39.9 µM and the GI50 (786-0) was 7 µM. For the same molecule, the TGI (786-0) was 72.5 µM, the CC50 (786-0; [9]) was > 100 µM and the GI50 (HCC 2998) was 2.35 µM. It also gave a TGI (HCC 2998) of 21 µM, a CC50 (HCC 2998; [9]) of 94.5 µM and a GI50 (SK-MEL-5) of 2.94 µM. For the same molecule, the LC50 (SK-MEL-5) was > 100 µM, the TGI (SK-MEL-5) was 14.6 µM and the MBC (Escherichia coli) was 50 µg/mL (≈ 161 µM). For the same molecule, the MIC (Escherichia coli) was 50 µg/mL (≈ 161 µM), the GI50 (SNB-19) was 4.12 µM and the TGI (SNB-19) was > 100 µM. For the same molecule, the CC50 (SNB-19; [9]) was > 100 µM, the inhibition of growth at 10 µM (OVCAR-3) was 94% and the inhibition of growth at 10 µM (LOX IMVI) was 57.9%. For the same molecule, the GI50 (OVCAR-4) was 14.3 µM, the TGI (OVCAR-4) was > 100 µM and the CC50 (OVCAR-4; [9]) was > 100 µM. It also gave an inhibition of growth at 10 µM (SF-295) of 51.5%, an inhibition of growth at 10 µM (K562) of 78.8% and a GI50 (UO-31) of 5.9 µM. The LC50 (50% lethal concentration) (UO-31) was > 100 µM, the TGI (UO-31) was 85.5 µM and the GI50 (NCI-H23) was 5.4 µM. For the same molecule, the TGI (NCI-H23) was 87 µM, the CC50 (NCI-H23; [9]) was > 100 µM and the GI50 (NCI-H460) was 2.08 µM. It also gave a TGI (NCI-H460) of 5.62 µM, a CC50 (NCI-H460; [9]) of 28.3 µM and a GI50 (HT-29) of 2.1 µM. The TGI (HT-29) was > 100 µM, the CC50 (HT-29; [9]) was > 100 µM and the inhibition of growth at 10 µM (ACHN) was 37.2%. The GI50 (A549) was 4.29 µM, the TGI (A549) was > 100 µM and the CC50 (A549; [9]) was > 100 µM. The GI50 (Hs-578T) was 9.07 µM, the TGI (Hs-578T) was > 100 µM and the CC50 (Hs-578T; [9]) was > 100 µM. The inhibition of growth at 10 µM (PC-3 [3]) was 36.5%, the GI50 (HL-60(TB)) was 2.03 µM and the TGI (HL-60(TB)) was 13.7 µM. For the same molecule, the CC50 (HL-60(TB); [9]) was > 100 µM, the inhibition of growth at 10 µM (M14) was 72.2% and the GI50 (MDA-MB-468 [4]) was 1.96 µM. For the same molecule, the TGI (MDA-MB-468 [4]) was 6.47 µM, the CC50 (MDA-MB-468 [4]; [9]) was 61.6 µM and the GI50 (MDA-MB-435 [5]) was 0.283 µM. The TGI (MDA-MB-435 [5]) was 1.98 µM, the CC50 (MDA-MB-435 [5]; [9]) was > 100 µM and the inhibition of growth at 10 µM (MDA-MB-435 [6]) was 108%. For the same molecule, the GI50 (PC-3 [7]) was 5.86 µM, the TGI (PC-3 [7]) was 52.1 µM and the CC50 (PC-3 [7]; [9]) was > 100 µM. The inhibition of growth at 10 µM (MDA-MB-468 [8]) was 71.9%.
